Measured values taken from the supplement of paper PMC9763283.

How the values were obtained:
Experiment in all cases: area under growth-rate inhibition curve (AUC GRI) (dimensionless (GR-based AUC)); higher = less growth inhibition
Details in all cases: exposure time: 72 h; concentrations: 0.1, 1, 10 uM
BT474-LTR = system: BT474-LTR
Summary of the method: (§1)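 Nuclear counts from Hoechst 33342- or DAPI-stained images were used to estimate the area under the growth-rate inhibition curve, with growth corrected by reference to untreated and DMSO-treated plates and starting plates. The six breast cancer cell line models, comprising two triple-negative lines and parental and drug-combination-resistant HER2+ lines, were treated with compound at 0.1, 1 or 10 µM for 72 h. Data came from 2 biological replicates, using Day 0 and Day 3 plates.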

BT474-P = system: BT474-P
Summary of the method: as §1

MDA-MB-231 = system: MDA-MB-231
Summary of the method: as §1

MDA-MB-468 = system: MDA-MB-468
Summary of the method: as §1

SKBR3-LTR = system: SKBR3-LTR
Summary of the method: as §1

SKBR3-P = system: SKBR3-P
Summary of the method: as §1

Row | SMILES | area under growth-rate inhibition curve (BT474-LTR) | area under growth-rate inhibition curve (BT474-P) | area under growth-rate inhibition curve (MDA-MB-231) | area under growth-rate inhibition curve (MDA-MB-468) | area under growth-rate inhibition curve (SKBR3-LTR) | area under growth-rate inhibition curve (SKBR3-P)
1 | CCCc1c2oc(C(=O)O)cc(=O)c2cc2c(=O)cc(C(=O)O)n(CC)c12 [Nedocromil] | 1.04 | 1.02 | 1.03 | 1.05 | 1.05 | 1.02
2 | Cc1cccc(C)c1NC(=O)CN1CCCC1=O [Nefiracetam] | 1.06 | 1.05 | 1.02 | 1.03 | 1.03 | 1
3 | Cl.NCc1cnc(S)n1C1CCc2c(F)cc(F)cc2C1 (stereo not drawn) [Nepicastat (SYN-117) HCl] | 1.08 | 1.03 | 1.01 | 1 | 1.07 | 1.02
4 | O=C(O)c1cccnc1Nc1cccc(C(F)(F)F)c1 [Niflumic acid] | 1.07 | 1.01 | 1.03 | 1.03 | 1.04 | 1.01
5 | CN/C(=C\[N+](=O)[O-])NCCSCc1csc(CN(C)C)n1 [Nizatidine] | 1.07 | 1.05 | 1.02 | 1.04 | 1.05 | 1
6 | Cc1cc2c(s1)Nc1ccccc1N=C2N1CCN(C)CC1 [Olanzapine] | 1.08 | 1.02 | 1.01 | 1.03 | 1.06 | 0.97
7 | CN(C)CC/C=C1\c2ccccc2COc2ccc(CC(=O)O)cc21.Cl [Olopatadine HCl] | 1.1 | 1.04 | 1.04 | 0.999 | 1.02 | 1.02
8 | Cc1nccn1CC1CCc2c(c3ccccc3n2C)C1=O.[Cl-].[H+] (configuration not stated) [Ondansetron HCl] | 1.08 | 1.05 | 1.03 | 1.02 | 1.02 | 1.03
9 | Cc1ccccc1C(OCCN(C)C)c1ccccc1.O=C(O)CC(O)(CC(=O)O)C(=O)O (configuration not stated) [Orphenadrine Citrate] | 1.06 | 1.03 | 1.02 | 1.04 | 1.07 | 0.995
10 | CCCCCCCCOc1ccccc1C(=O)Nc1ccc(C(=O)OCC[N+](C)(CC)CC)cc1.[Br-] [Otilonium Bromide] | 1.07 | 0.939 | 1.04 | 0.947 | 1.01 | 1
11 | CCN(CC)CC#CCOC(=O)C(O)(c1ccccc1)C1CCCCC1.[Cl-].[H+] (configuration not stated) [Oxybutynin chloride] | 1.1 | 1.02 | 1.04 | 0.992 | 1.04 | 0.999
12 | Cc1cc(C(C)(C)C)c(O)c(C)c1CC1=NCCN1.[Cl-].[H+] [Oxymetazoline hydrochloride] | 1.09 | 1.05 | 1.01 | 1.04 | 1.06 | 1.02
13 | CC(C)Oc1ccc(-c2nc(-c3cccc4c3CC[C@@H]4NCCO)no2)cc1C#N [Ozanimod (RPC1063)] | 1 | 0.933 | 0.889 | 0.927 | 0.976 | 0.984
14 | Cc1cc(CS(=O)(=O)c2ccccc2)cc(OCc2ccc(CN3CCC[C@@H]3CO)cc2)c1 [PF-543] | 1.01 | 0.97 | 1.01 | 0.99 | 1.07 | 1.03
15 | Cc1nc2n(c(=O)c1CCN1CCC(c3noc4cc(F)ccc34)CC1)CCCC2O (configuration not stated) [Paliperidone] | 1.02 | 0.98 | 1.05 | 1.05 | 1.06 | 1.02
16 | CC(=O)OC1CC2CCC3C(CCC4(C)C3CC([N+]3(C)CCCCC3)C4OC(C)=O)C2(C)CC1[N+]1(C)CCCCC1.[Br-].[Br-] (configuration not stated) [Pancuronium dibromide] | 1.06 | 1.01 | 1 | 1.01 | 0.978 | 0.989
17 | Fc1ccc([C@@H]2CCNC[C@H]2COc2ccc3c(c2)OCO3)cc1.[Cl-].[H+] [Paroxetine HCl] | 0.927 | 0.931 | 0.965 | 0.912 | 0.927 | 0.955
18 | NCCCCC1NC(=O)C(Cc2c[nH]c3ccccc23)NC(=O)C(c2ccccc2)NC(=O)C2CC(OC(=O)NCCN)CN2C(=O)C(Cc2ccccc2)NC(=O)C(Cc2ccc(OCc3ccccc3)cc2)NC1=O (configuration not stated) [Pasireotide] | 1.04 | 1.02 | 1.03 | 1.03 | 1.05 | 1.03
19 | Cc1cccn2c(=O)c(-c3nnn[n-]3)cnc12.[K+] [Pemirolast Potassium] | 1.05 | 1.04 | 1.05 | 1.04 | 1.05 | 1.03
20 | CC(=O)CCCCn1c(=O)c2c(ncn2C)n(C)c1=O [Pentoxifylline] | 1.03 | 1 | 1.04 | 1.04 | 1.05 | 1.02
21 | N#Cc1ccccc1-c1cc(-c2ccccn2)cn(-c2ccccc2)c1=O [Perampanel] | 1.05 | 1.01 | 1.03 | 1.02 | 1.05 | 1.03
22 | CCCN1C[C@H](CSC)C[C@@H]2c3cccc4[nH]cc(c34)C[C@H]21.CS(=O)(=O)O [Pergolide mesylate] | 1.06 | 1.02 | 1.02 | 1.02 | 1.02 | 0.978
23 | OCCN1CCN(CCCN2c3ccccc3Sc3ccc(Cl)cc32)CC1 [Perphenazine] | 1.03 | 0.983 | 1.04 | 1.03 | 1.04 | 1.01
24 | CC(COc1ccccc1)N(CCCl)Cc1ccccc1.[Cl-].[H+] (configuration not stated) [Phenoxybenzamine HCl] | 0.978 | 0.997 | 0.984 | 1 | 1.01 | 1.01
25 | CS(=O)(=O)O.Cc1ccc(N(CC2=NCCN2)c2cccc(O)c2)cc1 [Phentolamine Mesylate] | 1.05 | 0.997 | 1.01 | 0.964 | 1.04 | 0.983
26 | CNC[C@H](O)c1cccc(O)c1.Cl [Phenylephrine HCl] | 1.09 | 1.01 | 0.996 | 1.03 | 1.02 | 0.985

Row | SMILES | area under growth-rate inhibition curve (BT474-LTR) | area under growth-rate inhibition curve (BT474-P) | area under growth-rate inhibition curve (MDA-MB-231) | area under growth-rate inhibition curve (MDA-MB-468) | area under growth-rate inhibition curve (SKBR3-LTR) | area under growth-rate inhibition curve (SKBR3-P)
27 | CC(C)COc1ccc(CNC(=O)N(Cc2ccc(F)cc2)C2CCN(C)CC2)cc1 [Pimavanserin] | 0.936 | 0.873 | 0.867 | 0.887 | 0.876 | 0.856
28 | O=c1[nH]c2ccccc2n1C1CCN(CCCC(c2ccc(F)cc2)c2ccc(F)cc2)CC1 [Pimozide] | 0.991 | 0.974 | 0.991 | 0.959 | 1.01 | 0.972
29 | CCC/N=C1\S/C(=C\c2ccc(OC[C@H](O)CO)c(Cl)c2)C(=O)N1c1ccccc1C [Ponesimod] | 1.04 | 0.996 | 1.01 | 1.04 | 1.02 | 0.989
30 | CCCN[C@H]1CCc2nc(N)sc2C1 [Pramipexole] | 1.1 | 1.07 | 1.03 | 1.05 | 1.08 | 1.01
31 | CC(=O)Oc1cc2c(s1)CCN(C(C(=O)C1CC1)c1ccccc1F)C2 (configuration not stated) [Prasugrel] | 1.13 | 1.05 | 1.03 | 1.04 | 1.03 | 1.02
32 | CC(=O)[C@H]1CC[C@H]2[C@@H]3CC=C4C[C@@H](O)CC[C@]4(C)[C@H]3CC[C@]12C [Pregnenolone] | 1.09 | 1.02 | 1.03 | 1.02 | 1.05 | 0.999
33 | CCC1(c2ccccc2)C(=O)NCNC1=O [Primidone] | 1.02 | 0.982 | 1.04 | 1.03 | 1.06 | 1.03
34 | CC(C)NCC(O)COc1cccc2ccccc12.[Cl-].[H+] (configuration not stated) [Propranolol HCl] | 1.1 | 1.11 | 1.04 | 1.03 | 1.06 | 1.01
35 | COCCCN1CCC(NC(=O)c2cc(Cl)c(N)c3c2OCC3)CC1 [Prucalopride] | 1.07 | 1.02 | 1.05 | 1.04 | 1.06 | 1.01
36 | CN(C)C(=O)Oc1ccc[n+](C)c1.[Br-] [Pyridostigmine Bromide] | 1.07 | 1.04 | 1.05 | 1.03 | 1.04 | 0.997
37 | O=C(O)C=CC(=O)O.OCCOCCN1CCN(C2=Nc3ccccc3Sc3ccccc32)CC1.OCCOCCN1CCN(C2=Nc3ccccc3Sc3ccccc32)CC1 [Quetiapine Fumarate] | 1.07 | 1.03 | 1.02 | 1.02 | 1.07 | 1.04
38 | CC(=O)SCC(Cc1ccccc1)C(=O)NCC(=O)OCc1ccccc1 (configuration not stated) [Racecadotril] | 1.07 | 1.04 | 1.02 | 1.02 | 1.08 | 1.01
39 | O=C(c1ccc(OCCN2CCCCC2)cc1)c1c(-c2ccc(O)cc2)sc2cc(O)ccc12.[Cl-].[H+] [Raloxifene HCl] | 0.931 | 0.82 | 0.957 | 0.931 | 0.996 | 0.996
40 | CCC(=O)NCC[C@@H]1CCc2ccc3c(c21)CCO3 [Ramelteon] | 1.1 | 1.05 | 1.03 | 1.05 | 1.06 | 1.03
41 | CN/C(=C\[N+](=O)[O-])NCCSCc1ccc(CN(C)C)o1 [Ranitidine] | 1.1 | 1.07 | 1.01 | 1.04 | 1.03 | 1.03
42 | c1nc2nc(Nc3ccc(N4CCOCC4)cc3)nc(NC3CCCCC3)c2[nH]1 [Reversine] | 0.65 | 0.648 | 0.689 | 0.643 | 0.677 | 0.662
43 | Cc1c(C(=O)NN2CCCCC2)nn(-c2ccc(Cl)cc2Cl)c1-c1ccc(Cl)cc1 [Rimonabant] | 1.07 | 0.979 | 1 | 0.987 | 1.04 | 0.953
44 | CC(NCCc1ccc(O)cc1)C(O)c1ccc(O)cc1.[Cl-].[H+] (configuration not stated) [Ritodrine HCl] | 1.1 | 1.07 | 0.975 | 1.01 | 1.11 | 1.02
45 | CCN(C)C(=O)Oc1cccc(C(C)N(C)C)c1.O=C(O)C(O)C(O)C(=O)O (configuration not stated) [Rivastigmine Tartrate] | 1.07 | 1.06 | 1.03 | 1.04 | 1.06 | 1.02
46 | C=CC[N+]1(C2CC3C4CCC5CC(O)C(N6CCOCC6)CC5(C)C4CCC3(C)C2OC(C)=O)CCCC1.[Br-] (configuration not stated) [Rocuronium Bromide] | 1.1 | 1.07 | 1.02 | 1.03 | 1.05 | 1.03
47 | O=C(Nc1c(Cl)cncc1Cl)c1ccc(OC(F)F)c(OCC2CC2)c1 [Roflumilast] | 1.05 | 1.03 | 0.966 | 1.04 | 1.07 | 1.01
48 | CCCN(CCC)CCc1cccc2c1CC(=O)N2 [Ropinirole] | 1.05 | 0.994 | 1.03 | 1.06 | 1.05 | 1.02
49 | CCCN(CCc1cccs1)[C@H]1CCc2c(O)cccc2C1 [Rotigotine] | 1.08 | 1.05 | 1.03 | 0.992 | 1.08 | 0.984
50 | COc1cc2c(cc1OC)C1Cc3ccc(OC)c(OC)c3CN1CC2 (configuration not stated) [Rotundine] | 1.11 | 1.03 | 0.997 | 1.02 | 1.04 | 0.992
51 | CC(=O)OCC(=O)NCCCOc1cccc(CN2CCCCC2)c1.[Cl-].[H+] [Roxatidine Acetate HCl] | 1.07 | 1.04 | 1.03 | 1.02 | 1.04 | 0.991
52 | Cc1cncc(CN2CCC(=C3c4ccc(Cl)cc4CCc4cccnc43)CC2)c1.O=C(O)/C=C/C(=O)O [Rupatadine Fumarate] | 1.05 | 0.974 | 1.05 | 0.972 | 1.03 | 0.966
